One may read the melting point as the temperature of the solid-liquid transition. Usually Ki stands for the dissociation constant of the complex between target and ligand, obtained from inhibition or displacement.

Data set [1] deals with T1, Human Histamine H3 Receptor (Homo sapiens, UniProt Q9Y5N1).
T1 construct: expressed in transfected cells; host or cells: HEK293T (stably transfected; membranes prepared from the cells)
The data set can be described thus: Methyl histamine binding in human histamine H3 receptor cell line. The following applies: read-out: H3 Binding Ki. Put shortly: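 Radioligand binding on membranes (10 μg/well) from a human H3 receptor cell line, 1 nM radioligand, 1 h at 30° C. in 50 mM Tris pH 7.5. Nonspecific binding defined with 10 uM clobenpropit, followed by filtration and scintillation counting. IC50 from four-parameter fit, converted to Ki by Cheng-Prusoff.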

T1 sequence (Q9Y5N1 whole entry): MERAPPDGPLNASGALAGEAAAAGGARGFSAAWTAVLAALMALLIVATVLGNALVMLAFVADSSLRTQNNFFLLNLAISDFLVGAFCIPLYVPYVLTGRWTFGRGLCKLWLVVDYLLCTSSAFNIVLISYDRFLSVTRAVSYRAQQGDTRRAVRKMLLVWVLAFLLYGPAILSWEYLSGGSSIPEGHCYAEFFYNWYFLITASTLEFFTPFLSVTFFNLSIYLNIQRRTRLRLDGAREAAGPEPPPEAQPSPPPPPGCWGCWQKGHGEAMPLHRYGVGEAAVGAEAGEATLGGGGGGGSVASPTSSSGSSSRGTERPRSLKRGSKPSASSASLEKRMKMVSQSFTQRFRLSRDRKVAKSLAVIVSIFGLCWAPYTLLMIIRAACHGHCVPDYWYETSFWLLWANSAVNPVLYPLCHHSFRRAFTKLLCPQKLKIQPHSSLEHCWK

Regarding `Fc1ccc(-c2ccc3c(c2)CCN(CCN2CCCCCC2)C3)cc1` [Example 175, 2-(2-azepan-1-ylethyl)-6-(4-fluorophenyl)-1,2,3,4-tetrahydroisoquinoline], the melting point is 258 to 260 °C. The Ki in data set [1] was > 100 nM.

Consider `c1cc2c(cc1-c1ccc3c(c1)OCO3)CCN(CCN1CCCC1)C2` [Example 176, 6-(1,3-benzodioxol-5-yl)-2-(2-pyrrolidin-1-ylethyl)-1,2,3,4-tetrahydroisoquinoline], for which the melting point was 257 to 259 °C. In data set [1], the Ki was in the range of 50.1 to 100 nM.

In the case of `FC(F)(F)Oc1ccc(-c2ccc3c(c2)CCN(CCN2CCCC2)C3)cc1` [Example 171, 2-(2-pyrrolidin-1-ylethyl)-6-[4-(trifluoromethoxy)phenyl]-1,2,3,4-tetrahydroisoquinoline], the melting point is > 230 °C. The Ki in data set [1] is > 100 nM.

With `O=C1c2ccc(-n3ncc4ccccc43)cc2CCN1CCN1CCCC1` [Example 36, 6-(1H-indazol-1-yl)-2-(2-(pyrrolidin-1-yl)ethyl)-3,4-dihydroiso-quinolin-1(2H)-one hydrochlroride], the melting point is 185 to 186 °C. For the same molecule, the Ki in data set [1] was < 10 nM.

`CS(=O)(=O)c1ccc(-c2ccc3c(c2)CCN(CCN2CCCC2)C3=O)cc1` [Example 135, 6-[4-(methylsulfonyl)phenyl]-2-(2-pyrrolidin-1-ylethyl)-3,4-dihydroisoquinolin-1(2H)-one] had a melting point of 153 to 155 °C. For the same molecule, the Ki in data set [1] was < 10 nM.

`CCNC(=O)c1ccc(Oc2ccc3c(c2)CCN(CCN2CCCC2)C3=O)cc1` [Example 93, N-ethyl-4-{[1-oxo-2-(2-pyrrolidin-1-ylethyl)-1,2,3,4-tetrahydroisoquinolin-6-yl]oxy}benzamide] had a melting point of 215 to 216 °C. In data set [1], the Ki was < 10 nM.

Take `O=C(NC1CC1)c1ccc(Oc2ccc3c(c2)CCN(CCN2CCCC2)C3=O)cc1` [Example 99, N-cyclopropyl-4-{[1-oxo-2-(2-pyrrolidin-1-ylethyl)-1,2,3,4-tetrahydroisoquinolin-6-yl]oxy}benzamid;e]: the melting point is 227 to 228 °C. Further, the Ki in data set [1] is < 10 nM.

For the molecule `O=C(NC1CCC1)c1ccc(Oc2ccc3c(c2)CCN(CCN2CCCC2)C3=O)cc1` [Example 97, N-cyclobutyl-4-{[1-oxo-2-(2-pyrrolidin-1-ylethyl)-1,2,3,4-tetrahydroisoquinolin-6-yl]oxy}benzamide], the melting point lay in the range of 236 to 237 °C. For the same molecule, the Ki in data set [1] lay in the range of 10.1 to 25 nM.

`Fc1ccc(-c2ccc3c(c2)CCN(CCN2CCCCC2)C3)cc1` [Example 174, 6-(4-fluorophenyl)-2-(2-piperidin-1-ylethyl)-1,2,3,4-tetrahydroisoquinoline] showed a melting point of 272 to 274 °C. Further, the Ki in data set [1] was in the range of 50.1 to 100 nM.

In turn, `O=C(NC1CCCC1)c1ccc(-c2ccc3c(c2)CCN(CCN2CCCC2)C3=O)cc1` [Example 55, N-cyclopentyl-4-[1-oxo-2-(2-pyrrolidin-1-ylethyl)-1,2,3,4-tetrahydroisoquinolin-6-yl]benzamide] registered a melting point of 258 to 260 °C. For the same molecule, in data set [1], the Ki is < 10 nM.

For the origin of these results see patent publication US20090069300A1, “ISOQUINOLINYL AND ISOINDOLINYL DERIVATIVES AS HISTAMINE-3 ANTAGONISTS” (Wyeth, priority 2007, published 2009).
